Among the data in patent publication US20240116892A1, “HETEROCYCLIC AMIDE AND UREA COMPOUNDS AS JAK2 INHIBITORS” (Ajax Therapeutics, Inc., priority 2022, published 2024) are Kd values, retold here.

A value given as a limit tells only on which side of the number the result lay.

Sequence of JAK2 (JH1 domain-catalytic, Y1007F, Y1008F) kinase (O60674 849-1124 Y1007F/Y1008F): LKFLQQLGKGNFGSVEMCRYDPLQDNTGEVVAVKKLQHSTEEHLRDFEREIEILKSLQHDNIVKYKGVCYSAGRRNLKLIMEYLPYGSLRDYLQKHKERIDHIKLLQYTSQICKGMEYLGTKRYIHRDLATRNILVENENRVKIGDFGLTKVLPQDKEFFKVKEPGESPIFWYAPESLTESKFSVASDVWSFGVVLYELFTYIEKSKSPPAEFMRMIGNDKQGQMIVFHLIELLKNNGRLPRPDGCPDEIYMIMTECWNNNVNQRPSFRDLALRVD

The assay concerns the target JAK2 (JH1 domain-catalytic, Y1007F, Y1008F) kinase (Homo sapiens (Human), UniProt O60674, Y1007F/Y1008F). Nature of the assay: JAK2 JH1 Domain Binding Assay. The note with it: qPCR readout. A digest of the protocol: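 Competitive binding format: test compound, DNA-tagged JAK2 JH1 (Y1007F/Y1008F; HEK293-expressed NFkB fusion) and ligand-coated magnetic beads incubated 1 h at room temperature. Kinase retained on beads released with 0.5 μmol/L non-biotinylated ligand, then measured by qPCR.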
For orientation: In qPCR the cycle at which signal appears reflects the starting amount.
Take `COc1n[nH]c2ncc(N3CC[C@@H](N(C)C(=O)Nc4cc(C(F)(F)F)cn(C)c4=O)C[C@H]3C)cc12` [Example I-133-b, 1-((2R,4R)-1-(3-methoxy-1H-pyrazolo[3,4-b]pyridin-5-yl)-2-methylpiperidin-4-yl)-1-methyl-3-(1-methyl-2-oxo-5-(trifluoromethyl)-1,2-dihydropyridin-3-yl)urea]: the dissociation constant Kd was below 10 nM.

`CN(C(=O)Nc1cc(C(F)(F)F)cn(C)c1=O)[C@H]1CCN(c2cnccn2)CC1(F)F` (single isomer, unassigned) [Example I-22-b] displayed a Kd of 10 to 50 nM.

`Cc1cc2nc(N3CCC(N(C)C(=O)Nc4cc(C(F)(F)F)cn(C)c4=O)C(F)(F)C3)cnc2[nH]1` (single isomer, unassigned) [Example I-37-b, (S)- or (R)-1-(3,3-difluoro-1-(6-methyl-5H-pyrrolo[2,3-b]pyrazin-2-yl)piperidin-4-yl)-1-methyl-3-(1-methyl-2-oxo-5-(trifluoromethyl)-1,2-dihydropyridin-3-yl)urea] yielded a Kd below 10 nM.

For the compound `CN1CCN(c2n[nH]c3ncc(N4CC[C@H](N(C)C(=O)Nc5cc(C(F)(F)F)cn(C)c5=O)C(F)(F)C4)cc23)CC1` (single isomer, unassigned) [Example I-154-b, (R)- or (S)-1-(3,3-difluoro-1-(3-(4-methylpiperazin-1-yl)-1H-pyrazolo[3,4-b]pyridin-5-yl)piperidin-4-yl)-1-methyl-3-(1-methyl-2-oxo-5-(trifluoromethyl)-1,2-dihydropyridin-3-yl)urea], the Kd is below 10 nM.

Consider `Cc1c[nH]c2ncc(N3CCC(N(C)C(=O)Nc4cc(C(F)(F)F)cn(C)c4=O)C(F)(F)C3)nc12` (single isomer, unassigned) [Example I-33-b, (S)- or (R)-1-(3,3-difluoro-1-(7-methyl-5H-pyrrolo[2,3-b]pyrazin-2-yl)piperidin-4-yl)-1-methyl-3-(1-methyl-2-oxo-5-(trifluoromethyl)-1,2-dihydropyridin-3-yl)urea], for which the equilibrium dissociation constant (Kd) was below 10 nM.

`Cc1cc(NC(=O)N(C)C2CCN(c3cnc4[nH]ncc4c3)CC2)cc(C(F)(F)F)c1` [Example I-17, 1-(1-(1H-pyrazolo[3,4-b]pyridin-5-yl)piperidin-4-yl)-1-methyl-3-(3-methyl-5-(trifluoromethyl)phenyl)urea] yielded an equilibrium dissociation constant (Kd) below 10 nM.

Take `CN(C(=O)Nc1cc(C(F)(F)F)cn(C)c1=O)[C@@H]1CCN(c2cnc3[nH]ccc3n2)CC1(F)F` (single isomer, unassigned) [Example I-27-a]: the Kd is below 10 nM.

On to `CN(C(=O)Nc1cc(C(F)(F)F)ccn1)[C@@H]1CCN(c2cnc3[nH]ncc3c2)CC1(F)F` (mixture of isomers) [Example I-146-a, (R)-1-(3,3-difluoro-1-(1H-pyrazolo[3,4-b]pyridin-5-yl)piperidin-4-yl)-1-methyl-3-(4-(trifluoromethyl)pyridin-2-yl)urea and (S)-1-(3,3-difluoro-1-(1H-pyrazolo[3,4-b]pyridin-5-yl)piperidin-4-yl)-1-methyl-3-(4-(trifluoromethyl)pyridin-2-yl)urea], for which the Kd is below 10 nM.

Compound `CNc1n[nH]c2ncc(N3CC[C@H](N(C)C(=O)Nc4cc(C(F)(F)F)cn(C)c4=O)[C@H](F)C3)cc12` [Example I-97-b, 1-((3R,4S)-3-fluoro-1-(3-(methylamino)-1H-pyrazolo[3,4-b]pyridin-5-yl)piperidin-4-yl)-1-methyl-3-(1-methyl-2-oxo-5-(trifluoromethyl)-1,2-dihydropyridin-3-yl)urea] showed a dissociation constant (Kd) below 10 nM.

`COCCOc1n[nH]c2ncc(C34CC(N(C)C(=O)Nc5cc(C(F)(F)F)cn(C)c5=O)(C3)C4)cc12` [Example I-157, 1-(3-(3-(2-methoxyethoxy)-1H-pyrazolo[3,4-b]pyridin-5-yl)bicyclo[1.1.1]pentan-1-yl)-1-methyl-3-(1-methyl-2-oxo-5-(trifluoromethyl)-1,2-dihydropyridin-3-yl)urea] came in with an equilibrium dissociation constant (Kd) below 10 nM.

Compound `CN(C(=O)Nc1cc(C(F)(F)F)cn(C)c1=O)C12CCC(c3cnc4[nH]ncc4c3)(CC1)OC2` [Example I-168, 1-(1-(1H-pyrazolo[3,4-b]pyridin-5-yl)-2-oxabicyclo[2.2.2]octan-4-yl)-1-methyl-3-(1-methyl-2-oxo-5-(trifluoromethyl)-1,2-dihydropyridin-3-yl)urea] yielded a Kd below 10 nM.

`CN1CCC(c2n[nH]c3ncc(N4CC[C@@H](N(C)C(=O)Nc5cc(C(F)(F)F)cn(C)c5=O)C(F)(F)C4)cc23)CC1` (single isomer, unassigned) [Example I-122-b]: the Kd was below 10 nM.

As for `C[C@H]1C[C@@H](N(C)C(=O)Nc2cc(C(C)(C)C)n([C@H]3C[C@H](O)C3)n2)CCN1c1cnc2[nH]ncc2c1` [Example I-135-b, 3-(5-(tert-butyl)-1-((1r,3S)-3-hydroxycyclobutyl)-1H-pyrazol-3-yl)-1-methyl-1-((2S,4S)-2-methyl-1-(1H-pyrazolo[3,4-b]pyridin-5-yl)piperidin-4-yl)urea], the Kd is 50 to 1000 nM.

`COc1n[nH]c2ncc(N3CCC(N(C)C(=O)Nc4cc(C(F)(F)F)cn(C)c4=O)CC3)cc12` [Example I-69, 1-(1-(3-methoxy-1H-pyrazolo[3,4-b]pyridin-5-yl)piperidin-4-yl)-1-methyl-3-(1-methyl-2-oxo-5-(trifluoromethyl)-1,2-dihydropyridin-3-yl)urea] showed a dissociation constant Kd below 10 nM.

On to `CN(C(=O)Nc1cc(C(F)(F)F)cn(C)c1=O)[C@H]1CCN(c2cnc3[nH]cc(N4CCOCC4)c3n2)CC1(F)F` (single isomer, unassigned) [Example I-155-b], for which the equilibrium dissociation constant (Kd) was 10 to 50 nM.

For `CN(C(=O)Nc1cc(C(F)(F)F)cn(C)c1=O)[C@@H]1CCN(c2cnc3[nH]n(C)c(=O)c3c2)C[C@H]1F` [Example I-90-b, 1-((3R,4R)-3-fluoro-1-(2-methyl-3-oxo-2,3-dihydro-1H-pyrazolo[3,4-b]pyridin-5-yl)piperidin-4-yl)-1-methyl-3-(1-methyl-2-oxo-5-(trifluoromethyl)-1,2-dihydropyridin-3-yl)urea], the Kd lay within 10 to 50 nM.

In turn, `Cn1cc(C(F)(F)F)cc(NC(=O)N(C)[C@H]2CC[C@@H](c3cnc4[nH]ccc4n3)CC2)c1=O` [Example I-120-b, cis-1-(4-(5H-pyrrolo[2,3-b]pyrazin-2-yl)cyclohexyl)-1-methyl-3-(1-methyl-2-oxo-5-(trifluoromethyl)-1,2-dihydropyridin-3-yl)urea] displayed a dissociation constant (Kd) below 10 nM.

With `CN(C(=O)Nc1cc(C(F)(F)F)cn(C)c1=O)[C@@H]1CCN(c2cnc3[nH]c(=O)[nH]c3c2)C[C@@H]1F` [Example I-100-b, 1-((3S,4R)-3-fluoro-1-(2-oxo-2,3-dihydro-1H-imidazo[4,5-b]pyridin-6-yl)piperidin-4-yl)-1-methyl-3-(1-methyl-2-oxo-5-(trifluoromethyl)-1,2-dihydropyridin-3-yl)urea], the Kd was below 10 nM.

Turning to `CNc1c[nH]c2ncc([C@H]3CC[C@@H](N(C)C(=O)Nc4cc(C(F)(F)F)cn(C)c4=O)CC3)nc12` [Example I-145, 1-methyl-3-(1-methyl-2-oxo-5-(trifluoromethyl)-1,2-dihydropyridin-3-yl)-1-((1s,4s)-4-(7-(methylamino)-5H-pyrrolo[2,3-b]pyrazin-2-yl)cyclohexyl)urea], the Kd was below 10 nM.

As for `CN(C(=O)Nc1cc(C(F)(F)F)cn(C)c1=O)C1CCN(c2cnc3sncc3c2)CC1` [Example I-66, 1-(1-(isothiazolo[5,4-b]pyridin-5-yl)piperidin-4-yl)-1-methyl-3-(1-methyl-2-oxo-5-(trifluoromethyl)-1,2-dihydropyridin-3-yl)urea], the dissociation constant Kd was below 10 nM.

`CN(C(=O)Nc1cc(C(F)(F)F)cn(C)c1=O)[C@@H]1CCN(c2cnc3[nH]ncc3c2)CC1(F)F` [Example I-29-a, (R)-1-(3,3-difluoro-1-(1H-pyrazolo[3,4-b]pyridin-5-yl)piperidin-4-yl)-1-methyl-3-(1-methyl-2-oxo-5-(trifluoromethyl)-1,2-dihydropyridin-3-yl)urea] displayed a Kd below 10 nM.

`CN(C(=O)Nc1cc(C(C)(C)C)n([C@@H]2CCOC2)n1)C1CCN(c2cnc3[nH]ncc3c2)CC1` [Example I-173, (R)-1-(1-(1H-pyrazolo[3,4-b]pyridin-5-yl)piperidin-4-yl)-3-(5-(tert-butyl)-1-(tetrahydrofuran-3-yl)-1H-pyrazol-3-yl)-1-methylurea] had a dissociation constant (Kd) below 10 nM.

With `Cn1cc(C(F)(F)F)cc(NC(=O)N2CC=CC23CCN(c2cnc4[nH]cc(F)c4n2)CC3)c1=O` [Example I-93, 8-(7-fluoro-5H-pyrrolo[2,3-b]pyrazin-2-yl)-N-(1-methyl-2-oxo-5-(trifluoromethyl)-1,2-dihydropyridin-3-yl)-1,8-diazaspiro[4.5]dec-3-ene-1-carboxamide], the Kd was in the range of 10 to 50 nM.

In turn, `CN(C(=O)Nc1cc(C(F)(F)F)cn(C)c1=O)[C@H]1C[C@H]2C[C@@H]1CN2c1cnc(NC(=O)C2CC2)cn1` (single isomer, unassigned) [Example I-44-b] showed a dissociation constant (Kd) of 10 to 50 nM.

In turn, `[2H]C1([2H])C[C@H](N(C)C(=O)Nc2cc(C(F)(F)F)cn(C)c2=O)[C@@H](OC)C([2H])([2H])N1c1cnc2[nH]ncc2c1` [Example I-153-b, 1-((3S,4S)-3-methoxy-1-(1H-pyrazolo[3,4-b]pyridin-5-yl)piperidin-4-yl-2,2,6,6-d4)-1-methyl-3-(1-methyl-2-oxo-5-(trifluoromethyl)-1,2-dihydropyridin-3-yl)urea] had a Kd of 10 to 50 nM.

On to `CN(C(=O)Nc1cc(C(F)(F)F)cn(C)c1=O)C1CCN(c2cnc3[nH]n(C)c(=O)c3c2)CC1` [Example I-86, 1-methyl-3-(1-methyl-2-oxo-5-(trifluoromethyl)-1,2-dihydropyridin-3-yl)-1-(1-(2-methyl-3-oxo-2,3-dihydro-1H-pyrazolo[3,4-b]pyridin-5-yl)piperidin-4-yl)urea], for which the Kd was below 10 nM.

On to `CN(C(=O)Nc1cc(C(C)(C)C)n([C@H]2CCOC2)n1)C1CCN(c2cnc3[nH]ncc3c2)CC1` [Example I-174, (S)-1-(1-(1H-pyrazolo[3,4-b]pyridin-5-yl)piperidin-4-yl)-3-(5-(tert-butyl)-1-(tetrahydrofuran-3-yl)-1H-pyrazol-3-yl)-1-methylurea], for which the equilibrium dissociation constant (Kd) is below 10 nM.

As usually defined, the Kd is the equilibrium constant for the complex coming apart.
